Consider eight molecules from ChEMBL document CHEMBL5608163, “Structure modification of anoplin for fighting resistant bacteria” (Eur J Med Chem, 2024).

Converted amounts (≈) assume the structure as drawn. Square brackets hold non-standard residues; d marks the D form. Peptide text beside a SMILES is read from it. * marks the point of attachment. Pentadecanoyl = CCCCCCCCCCCCCCC(=O)*; NMeI = CC[C@H](C)[C@H](NC)C(=O)O; hIle = CC[C@H](C)C[C@H](N)C(=O)O; Cha = N[C@@H](CC1CCCCC1)C(=O)O; NMeL = CN[C@@H](CC(C)C)C(=O)O; Undecanoyl = CCCCCCCCCCC(=O)*; Nonanoyl = CCCCCCCCC(=O)*

Series [1] deals with Escherichia coli. In words: Antibacterial activity against Escherichia coli ATCC 25922 assessed as reduction in bacterial cell growth measured for 18 hrs by Mueller-Hinton broth based two-fold serial dilution method. Type of series: functional.
The test system of series [2] is Staphylococcus aureus. In words: Antibacterial activity against Staphylococcus aureus ATCC 25923 assessed as reduction in bacterial cell growth measured for 18 hrs by Mueller-Hinton broth based two-fold serial dilution method. Format: functional.
In another series the test system is Klebsiella pneumoniae. In words: Antibacterial activity against Klebsiella pneumoniae ATCC 700603 assessed as reduction in bacterial cell growth measured for 18 hrs by Mueller-Hinton broth based two-fold serial dilution method. Format: functional.
Series [3] is described as follows: (§1) Hemolytic activity in mouse Red blood cells incubated for 1 hr by microplate reader assay. Format: toxicity, cell-based, Erythrocyte. The following applies: red blood cells.
Series [4] concerns Pseudomonas aeruginosa. The series can be described thus: Antibacterial activity against Pseudomonas aeruginosa ATCC 27853 assessed as reduction in bacterial cell growth measured for 18 hrs by Mueller-Hinton broth based two-fold serial dilution method. Format: functional.
For series [5], the system named is Bacillus subtilis. In words: Antibacterial activity against Bacillus subtilis ATCC 23857 assessed as reduction in bacterial cell growth measured for 18 hrs by Mueller-Hinton broth based two-fold serial dilution method. Type of series: functional.
In series [6] the test system is Pseudomonas aeruginosa. The series can be described thus: Antibacterial activity against Pseudomonas aeruginosa ATCC 27853 assessed as reduction in bacterial growth incubated for 18 to 20 hrs by Mueller Hinton broth dilution method. Format: functional. The following applies: time 18-20 hrs. In general terms: Broth dilution looks for growth in wells or tubes with falling amounts of substance.

For series [7], the system named is Escherichia coli. The series can be described thus: Antibacterial activity against Escherichia coli ATCC 25922 assessed as reduction in bacterial growth incubated for 18 to 20 hrs by Mueller Hinton broth dilution method. The note with it: time 18-20 hrs. Format: functional.
The test system of a further series is Erythrocyte. The series is described as §1. Format: toxicity, cell-based. The note with it: erythrocyte, 1 h.
Series [8] deals with Bacillus subtilis. In words: Antibacterial activity against Bacillus subtilis ATCC 23857 assessed as reduction in bacterial growth incubated for 18 to 20 hrs by Mueller Hinton broth dilution method. Format: functional. The note with it: time 18-20 hrs.
The subject of series [9] is Staphylococcus aureus. The series can be described thus: Antibacterial activity against Staphylococcus aureus ATCC 25923 assessed as reduction in bacterial growth incubated for 18 to 20 hrs by Mueller Hinton broth dilution method. Format: functional. The following applies: time 18-20 hrs.
Series [10] relates to Escherichia coli. In words: Antibacterial activity against Escherichia coli ATCC 25922 assessed as reduction in microbial growth incubated for 16 to 20 hrs by CLSI protocol based Muller Hinton broth assay. Type of series: functional. The following applies: time 16-20 hrs.
Series [11] is described as follows: Hemolytic activity in human RBC assessed as hemolysis measured after 24 hrs. Type of series: toxicity, cell-based, Erythrocyte. The following applies: red blood cells.
The test system of series [12] is Pseudomonas aeruginosa. In words: Antibacterial activity against Pseudomonas aeruginosa ATCC 27853 assessed as reduction in microbial growth incubated for 16 to 20 hrs by CLSI protocol based Muller Hinton broth assay. Type of series: functional. The following applies: time 16-20 hrs.
For series [13], the system named is Staphylococcus aureus. In words: Antibacterial activity against methicillin-resistant Staphylococcus aureus ATCC 33591 assessed as reduction in bacterial growth incubated for 18 hrs by agar dilution method. Type of series: functional.
Another series relates to Enterococcus faecium. The series can be described thus: Antibacterial activity against vancomycin resistant Enterococcus faecium ATCC 700221 assessed as inhibition of bacterial growth incubated for 48 hrs by CLSI-based broth microdilution assay. Type of series: functional.
In series [14] the test system is Staphylococcus aureus. In words: Antibacterial activity against Staphylococcus aureus ATCC 25923 assessed as reduction in bacterial growth incubated for 18 to 24 hrs by broth microdilution method. The note with it: time 18-24 hrs. Format: functional.
Series [15] relates to Escherichia coli. The series can be described thus: Antibacterial activity against Escherichia coli ATCC 25922 assessed as reduction in bacterial growth by broth microdilution method. Format: functional.

As for `CCCCCCCCC(=O)NCC(=O)N[C@@H](CC(C)C)C(=O)N(C)[C@@H](CC(C)C)C(=O)N[C@@H](CCCCN)C(=O)N[C@@H](CCCNC(=N)N)C(=O)N(C)[C@H](C(=O)N[C@@H](CCCCN)C(=O)N[C@H](C(=O)N[C@@H](CC(C)C)C(=O)N[C@@H](CC(C)C)C(N)=O)[C@@H](C)O)[C@@H](C)CC` (Nonanoyl-GL[NMeL]KR[NMeI]KTLL-NH2), the MIC is 128 µM (≈ 169 µg/mL) with Escherichia coli [1]; 128 µM (≈ 169 µg/mL) in the series with Staphylococcus aureus [2]; greater than 128 µM in the series with Klebsiella pneumoniae; 32 µM (≈ 42.3 µg/mL) in the series on Pseudomonas aeruginosa [4]; 8 µM (≈ 10.6 µg/mL) with Bacillus subtilis [5]. The molecule also gave an HC50 at 1 h in series [3] greater than 256 µM.
As to `CCCCCCCCCCC(=O)NCC(=O)N[C@@H](CC(C)C)C(=O)N(C)[C@@H](CC(C)C)C(=O)N[C@@H](CCCCN)C(=O)N[C@@H](CCCNC(=N)N)C(=O)N(C)[C@H](C(=O)N[C@@H](CCCCN)C(=O)N[C@H](C(=O)N[C@@H](CC(C)C)C(=O)N[C@@H](CC(C)C)C(N)=O)[C@@H](C)O)[C@@H](C)CC` (Undecanoyl-GL[NMeL]KR[NMeI]KTLL-NH2), the MIC in the series on Escherichia coli [1] amounted to 16 µM (≈ 21.6 µg/mL); in the series on Staphylococcus aureus [2], 16 µM (≈ 21.6 µg/mL); in the series on Klebsiella pneumoniae, 64 µM (≈ 86.4 µg/mL); in the series on Pseudomonas aeruginosa [4], 8 µM (≈ 10.8 µg/mL); in the series with Bacillus subtilis [5] it was 4 µM (≈ 5.4 µg/mL). The same molecule returned an HC50 at 1 h in series [3] greater than 256 µM.
For `CC(C)C[C@@H](NC(=O)[C@@H](CC(C)C)NC(=O)[C@@H](CCCCN)NC(=O)[C@@H](CCCCN)NC(=O)[C@@H](Cc1c[nH]c2ccccc12)NC(=O)[C@@H](Cc1c[nH]c2ccccc12)NC(=O)[C@@H](CCCCN)NC(=O)[C@@H](CC(C)C)NC(=O)[C@@H](CC(C)C)NC(=O)[C@H](N)CCCCN)C(N)=O` (H-[dK][dL][dL][dK][dW][dW][dK][dK][dL][dL]-NH2), the MIC in the series with Pseudomonas aeruginosa [6] was determined as 8 µM (≈ 10.8 µg/mL); with Escherichia coli [7], 64 µM (≈ 86.7 µg/mL); in the series with Bacillus subtilis [8] it was 4 µM (≈ 5.42 µg/mL); in the series with Staphylococcus aureus [9], 8 µM (≈ 10.8 µg/mL). Also, in the series with Erythrocyte, the HC10 is greater than 200 µM.
Take `CC[C@H](C)C[C@H](NC(=O)[C@H](CCCNC(=N)N)NC(=O)[C@H](CCCCN)NC(=O)[C@H](CC1CCCCC1)NC(=O)[C@H](CC(C)C)NC(=O)CN)C(=O)N[C@@H](CCCCN)C(=O)N[C@H](C(=O)N[C@@H](CC(C)C)C(=O)N[C@@H](CC(C)C)C(N)=O)[C@@H](C)O` (H-GL[Cha]KR[hIle]KTLL-NH2): the MIC in the series on Escherichia coli [10] was 28.4 µM; in the series on Pseudomonas aeruginosa [12] it was 28.4 µM; in the series on Staphylococcus aureus [13] it was 28.4 µM (≈ 34.3 µg/mL); in the series on Enterococcus faecium it was 28.4 µM (≈ 34.3 µg/mL). For the same molecule, the HC50 at 24 h in [11] turned out to be 436 µM.
Consider `CC(C)C[C@@H](NC(=O)[C@@H](CC(C)C)NC(=O)[C@@H](CCCCN)NC(=O)[C@@H](CCCCN)NC(=O)[C@@H](Cc1c[nH]c2ccccc12)NC(=O)[C@@H](CCCNC(=N)N)NC(=O)[C@@H](CCCCN)NC(=O)[C@@H](CC(C)C)NC(=O)[C@@H](CC(C)C)NC(=O)[C@H](N)Cc1c[nH]c2ccccc12)C(N)=O`, for which the MIC in the series on Pseudomonas aeruginosa [6] is 8 µM (≈ 11.1 µg/mL); with Escherichia coli [7] it was 8 µM (≈ 11.1 µg/mL); in the series on Bacillus subtilis [8], 4 µM (≈ 5.53 µg/mL); in the series with Staphylococcus aureus [9] it was 16 µM (≈ 22.1 µg/mL). The molecule also came in with an HC10 in the series with Erythrocyte greater than 200 µM.
On to `CC[C@H](C)[C@H](NC(=O)[C@H](CCCNC(=N)N)NC(=O)[C@H](CCCCN)NC(=O)[C@H](CC(C)C)NC(=O)[C@H](C)NC(=O)CN)C(=O)N[C@@H](CCCCN)C(=O)N[C@H](C(=O)N[C@@H](CC(C)C)C(=O)N[C@@H](CC(C)C)C(N)=O)[C@@H](C)O` (H-GALKRIKTLL-NH2), for which the MIC in the series on Staphylococcus aureus [14] and in the series with Escherichia coli [15] was greater than 38.7 µM in each case.
For the molecule `CC[C@H](C)C[C@H](NC(=O)[C@H](CCCNC(=N)N)NC(=O)[C@H](CCCCN)NC(=O)[C@H](CC(C)C)NC(=O)[C@H](CC1CCCCC1)NC(=O)CN)C(=O)N[C@@H](CCCCN)C(=O)N[C@H](C(=O)N[C@@H](CC(C)C)C(=O)N[C@@H](CC(C)C)C(N)=O)[C@@H](C)O` (H-G[Cha]LKR[hIle]KTLL-NH2), the MIC with Escherichia coli [10] was 25 µM; with Pseudomonas aeruginosa [12] it was 28.4 µM; in the series on Staphylococcus aureus [13], 85.3 µM (≈ 103 µg/mL); with Enterococcus faecium, 15.8 µM (≈ 19.1 µg/mL). In addition, in [11], the HC50 at 24 h was determined as 195 µM.
On to `CCCCCCCCCCCCCCC(=O)NCC(=O)N[C@@H](CC(C)C)C(=O)N(C)[C@@H](CC(C)C)C(=O)N[C@@H](CCCCN)C(=O)N[C@@H](CCCNC(=N)N)C(=O)N(C)[C@H](C(=O)N[C@@H](CCCCN)C(=O)N[C@H](C(=O)N[C@@H](CC(C)C)C(=O)N[C@@H](CC(C)C)C(N)=O)[C@@H](C)O)[C@@H](C)CC` (Pentadecanoyl-GL[NMeL]KR[NMeI]KTLL-NH2), for which the MIC was 16 µM (≈ 22.5 µg/mL) in the series on Escherichia coli [1]; 8 µM (≈ 11.2 µg/mL) with Staphylococcus aureus [2]; 16 µM (≈ 22.5 µg/mL) with Klebsiella pneumoniae; 16 µM (≈ 22.5 µg/mL) in the series on Pseudomonas aeruginosa [4]; 4 µM (≈ 5.62 µg/mL) with Bacillus subtilis [5]. This molecule came in with an HC50 at 1 h in [3] of 64 µM.

Broadly, the MIC is the lowest concentration that inhibits growth of the organism. One may read the HC50 as the concentration that lyses half of the red blood cells.
